Experimental data published in patent US20230092005A1, “COMPOSITIONS AND METHODS FOR TREATING CANCER AND TUMOR” (OBLATO, INC., priority 2020, published 2023).

Test system: human A549 lung cancer xenografts
Test: Anti-cancer efficacy in nude mice carrying human A549 lung cancer xenografts (tumor volume, tumor weight, growth inhibition rate)
Format: in vivo, BALB/c Nude mouse
Conditions: for Tumor weights (mean): tumors weighed at day 29; for Tumor growth inhibition rate (IR): IR=(1-T/C)x100 from mean tumor weights, day 29
Procedure: The anti-cancer efficacy of OKN-007 was assessed after oral administration in nude mice carrying human A549 lung cancer xenografts implanted subcutaneously in the flank. Human lung cancer cell line, A549 was used. […] The frozen cells were thawed in a water bath. Cells were placed in a tube containing the medium and centrifuged (1,000 rpm, 5 minutes) to discard the supernatant. After re-suspending with the culture medium, cells were placed in a cell culture flask and incubated in a 5% CO2 incubator at 37° C. Cells were sub-cultured at a ratio of 1:5 when grown with confluency of 70-80% in the culture container. Cells cultured on the day of cell line transplantation were centrifuged (1,000 rpm, 5 minutes) to discard the supernatant and to make cell suspension with D-PB S. Then, the cell suspension was mixed with Matrigel at a ratio of 1:1 (5×10^7 cells/mL). BALB/c Nude mouse, [NT]-Foxnlnu/CrlOri, SPF was used. Sex, number, age, and body weight range of animals at receipt: The mice (65 mice) were male, 5 weeks old, and had about 14.5-19.6 g weight at the receipt. Cell transplantation: After the quarantine-acclimation period, the body weight measurement and cell transplantation in healthy animals were performed. […] Prepared cell (1×10^7 cells/0.2 mL) suspension was injected subcutaneously into the right flank with disposable syringes. […] Group assignment: After transplanting cells, each tumor size was monitored for 65 animals. When tumor volume reached within 87-112 mm^3, 50 animals were assigned to the respective groups with an average tumor volume of about 99 mm^3. Based on the tumor volume, animals were selected and randomly distributed into 5 groups (10 animals/group). Dosing Route: Oral administration. The route of administration was oral because the clinical application of the test substance is oral. Method and frequency of administration: For negative control and test substance, oral administration was performed once a day for 4 weeks for a total of 28 times using a disposable syringe. For positive control, intraperitoneal administration was performed once a week for 4 weeks for a total of 4 times using a disposable syringe. Dosing Route: The dose levels of the test substance were selected at 150, 300, and 600 mg/kg. The dose level of the positive substance was selected at 2 mg/kg. The dose volume was selected at 10 mL/kg for all groups, and the individual dose was calculated based on the bodyweight of animals just prior to dosing. Measurement of tumor volume: The largest diameter (a) and the smallest diameter (b) of each tumor were measured using calipers twice a week during the observation period. The tumor volume (TV) was calculated twice a week according to the following formula: TV (mm^3)=(a (mm)×b^2 (mm^2))/2. The volume of a tumor before administration to each animal was set to the value measured at the time of group assignment. Tumor removal and measurement of body weight: After the observation period, animals were anesthetized by inhalation of isoflurane. After the tumor was extracted, the weight of the removed tumor was recorded. The tumor growth inhibition rate (IR) was calculated using the following formula: IR (%)=(1-T/C)×100, where T is a mean tumor weight in the test substance group, and positive substance group, and C is a mean tumor weight in the negative control group.

CC(C)(C)/[N+]([O-])=C/c1ccc(S(=O)(=O)O)cc1S(=O)(=O)O [OKN-007, Disodium 4-[(Z)-[tert-butyl(oxido)azaniumylidene]methyl]benzene-1,3-disulfonate]
Tumor weights (mean) (G2, 150 mg/kg P.O. once a day for 4 weeks): 0.47 g
Tumor volume (mean) (G2, 150 mg/kg P.O. once a day, day 1 (before administration)): 99 mm^3
Tumor volume (mean) (G2, 150 mg/kg P.O. once a day, day 5 after administration): 152 mm^3
Tumor volume (mean) (G2, 150 mg/kg P.O. once a day, day 8 after administration): 200 mm^3
Tumor volume (mean) (G2, 150 mg/kg P.O. once a day, day 12 after administration): 240 mm^3
Tumor volume (mean) (G2, 150 mg/kg P.O. once a day, day 15 after administration): 243 mm^3
Tumor volume (mean) (G2, 150 mg/kg P.O. once a day, day 19 after administration): 306 mm^3
Tumor volume (mean) (G2, 150 mg/kg P.O. once a day, day 22 after administration): 376 mm^3
Tumor volume (mean) (G2, 150 mg/kg P.O. once a day, day 26 after administration): 466 mm^3
Tumor volume (mean) (G2, 150 mg/kg P.O. once a day, day 29 after administration): 603 mm^3
Tumor growth inhibition rate (IR) (G2, 150 mg/kg P.O.): 48.9%
Tumor weights (mean) (G3, 300 mg/kg P.O. once a day for 4 weeks): 0.43 g
Tumor volume (mean) (G3, 300 mg/kg P.O. once a day, day 1 (before administration)): 99 mm^3
Tumor volume (mean) (G3, 300 mg/kg P.O. once a day, day 5 after administration): 146 mm^3
Tumor volume (mean) (G3, 300 mg/kg P.O. once a day, day 8 after administration): 172 mm^3
Tumor volume (mean) (G3, 300 mg/kg P.O. once a day, day 12 after administration): 182 mm^3
Tumor volume (mean) (G3, 300 mg/kg P.O. once a day, day 15 after administration): 212 mm^3
Tumor volume (mean) (G3, 300 mg/kg P.O. once a day, day 19 after administration): 254 mm^3
Tumor volume (mean) (G3, 300 mg/kg P.O. once a day, day 22 after administration): 310 mm^3
Tumor volume (mean) (G3, 300 mg/kg P.O. once a day, day 26 after administration): 390 mm^3
Tumor volume (mean) (G3, 300 mg/kg P.O. once a day, day 29 after administration): 460 mm^3
Tumor growth inhibition rate (IR) (G3, 300 mg/kg P.O.): 53.3%
Tumor growth inhibition rate (IR) (G3, 300 mg/kg P.O., listed as test substance): 53.5%
Tumor weights (mean) (G4, 600 mg/kg P.O. once a day for 4 weeks): 0.38 g
Tumor volume (mean) (G4, 600 mg/kg P.O. once a day, day 1 (before administration)): 99 mm^3
Tumor volume (mean) (G4, 600 mg/kg P.O. once a day, day 5 after administration): 149 mm^3
Tumor volume (mean) (G4, 600 mg/kg P.O. once a day, day 8 after administration): 176 mm^3
Tumor volume (mean) (G4, 600 mg/kg P.O. once a day, day 12 after administration): 179 mm^3
Tumor volume (mean) (G4, 600 mg/kg P.O. once a day, day 15 after administration): 209 mm^3
Tumor volume (mean) (G4, 600 mg/kg P.O. once a day, day 19 after administration): 249 mm^3
Tumor volume (mean) (G4, 600 mg/kg P.O. once a day, day 22 after administration): 288 mm^3
Tumor volume (mean) (G4, 600 mg/kg P.O. once a day, day 26 after administration): 331 mm^3
Tumor volume (mean) (G4, 600 mg/kg P.O. once a day, day 29 after administration): 407 mm^3
Tumor growth inhibition rate (IR) (G4, 600 mg/kg P.O.): 58.7%
